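How tested: cells in 96-well plates exposed to compound for 48 hours at five concentrations. Here, GI50 denotes the concentration required for 50% inhibition of growth.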 The source made the active and inactive calls. No stated cut-off is given here; in the data, active = GI50 up to about 1.1 µM and inactive = higher.
Tests used:
Assay in all cases: NCI tumour cell line growth inhibition, 48 h
NCI-H460 = tested on: NCI-H460
UACC-62 = tested on: UACC-62
COLO 205 = tested on: COLO 205
SF-268 = tested on: SF-268
HCT-15 = tested on: HCT-15
RPMI-8226 = tested on: RPMI-8226
A498 = tested on: A498
SN12C = tested on: SN12C
UO-31 = tested on: UO-31
A549 = tested on: A549
786-0 = tested on: 786-0
OVCAR-4 = tested on: OVCAR-4
SNB-19 = tested on: SNB-19
SF-295 = tested on: SF-295
MOLT-4 = tested on: MOLT-4
LOX IMVI = tested on: LOX IMVI
NCI-H226 = tested on: NCI-H226
RXF 393 = tested on: RXF 393

Compound | GI50 (NCI-H460) | GI50 (UACC-62) | GI50 (COLO 205) | GI50 (SF-268) | GI50 (HCT-15) [µM] | GI50 (RPMI-8226) | GI50 (A498) | GI50 (SN12C) | GI50 (UO-31) | GI50 (A549) | GI50 (786-0) | GI50 (OVCAR-4) | GI50 (SNB-19) | GI50 (SF-295) | GI50 (MOLT-4) | GI50 (LOX IMVI) | GI50 (NCI-H226) | GI50 (RXF 393)
COc1ccc(/C=C2\Cc3ccccc3C2=O)cc1OC | > 100 µM (inactive) | > 100 µM (inactive) | > 100 µM (inactive) | 45.3 µM (inactive) | > 100 | > 100 µM (inactive) | > 100 µM (inactive) | > 100 µM (inactive) | 39.7 µM (inactive) | > 100 µM (inactive) | > 100 µM (inactive) | > 100 µM (inactive) | > 100 µM (inactive) | 60.8 µM (inactive) | > 100 µM (inactive) |  |  | 
C=C1C(=O)O[C@H]2C[C@@H](C)[C@@H]3CC(=O)OC[C@@]3(C)CC12 (stereo partly specified) | 18.8 µM (inactive) | 19.2 µM (inactive) | 20.9 µM (inactive) | 27.4 µM (inactive) | 29.4 | 21.4 µM (inactive) |  | 21.6 µM (inactive) | 49.1 µM (inactive) | 27.8 µM (inactive) | 21.2 µM (inactive) | 22.8 µM (inactive) | 53.1 µM (inactive) | 21.6 µM (inactive) | 27.5 µM (inactive) | 24.9 µM (inactive) |  | 
Nc1nc(N)c(CCCCc2ccccc2)c(C=O)n1 | 42.1 µM (inactive) | 15.2 µM (inactive) | 31.8 µM (inactive) | 18.8 µM (inactive) | 14.7 | 13.2 µM (inactive) | > 100 µM (inactive) | 19.1 µM (inactive) | 19.1 µM (inactive) | 41.4 µM (inactive) | 15 µM (inactive) | 23.9 µM (inactive) | 16.1 µM (inactive) | 22 µM (inactive) |  | 14.8 µM (inactive) | 19.4 µM (inactive) | 
COC(=O)C(Cc1nc2ccccc2nc1O)/C(=N\NC(C)(C)C)C(=O)Nc1c(C)cc(Br)cc1C (stereo unspecified) | 30.1 µM (inactive) | 19 µM (inactive) | 17.4 µM (inactive) | 22.3 µM (inactive) | 23.4 | 35.2 µM (inactive) | 12.7 µM (inactive) | 42.7 µM (inactive) | 50.4 µM (inactive) | 50.9 µM (inactive) | 17.5 µM (inactive) | 34.8 µM (inactive) | 31.1 µM (inactive) | 35.3 µM (inactive) | 1.5 µM (inactive) | 19.3 µM (inactive) | 17.6 µM (inactive) | 
CCOc1ccc(NC(=O)CC2Sc3ccccc3NC2=O)cc1 (stereo unspecified) | 90.2 µM (inactive) | > 100 µM (inactive) | 41.1 µM (inactive) | 53 µM (inactive) | 56.8 | 65.5 µM (inactive) | > 100 µM (inactive) | > 100 µM (inactive) | 47.2 µM (inactive) | > 100 µM (inactive) | 19.2 µM (inactive) | 18.4 µM (inactive) | 54.1 µM (inactive) | > 100 µM (inactive) | > 100 µM (inactive) |  | > 100 µM (inactive) | 
CC(C)=CCC/C(C)=C/CC/C(C)=C/CCC1(C)CCC([C@H](C)C(=O)O)OO1.CC1=C(CC/C(C)=C/CCC2(C)CCC([C@H](C)C(=O)O)OO2)C(C)(C)CCC1 (stereo partly specified) | > 100 µM (inactive) |  | > 100 µM (inactive) | > 100 µM (inactive) |  |  |  | > 100 µM (inactive) | > 100 µM (inactive) | > 100 µM (inactive) | > 100 µM (inactive) | > 100 µM (inactive) | > 100 µM (inactive) | > 100 µM (inactive) |  | > 100 µM (inactive) | > 100 µM (inactive) | > 100 µM (inactive)
CCC1=CCN(c2cc(C)ccn2)OC1c1ccccc1 (stereo unspecified) | 38.4 µM (inactive) | 39.2 µM (inactive) | 40.6 µM (inactive) | 86.5 µM (inactive) | 21.8 | 19.1 µM (inactive) |  | 34.6 µM (inactive) | 50 µM (inactive) | 40.1 µM (inactive) | 45.9 µM (inactive) | 59.8 µM (inactive) | 81.3 µM (inactive) | 39.3 µM (inactive) | 34.5 µM (inactive) | 30.9 µM (inactive) | > 100 µM (inactive) | 29.3 µM (inactive)
CC1(C2CCC3(C)C(C2)C3Sc2ccccc2)OCCO1 (stereo unspecified) | 20.4 µM (inactive) | 19.4 µM (inactive) | 19.4 µM (inactive) | 34.8 µM (inactive) | 31.9 | 13.5 µM (inactive) | 18.8 µM (inactive) | 20.4 µM (inactive) | 12.6 µM (inactive) | 24.2 µM (inactive) | 15.1 µM (inactive) | 31.3 µM (inactive) | 27 µM (inactive) | 21.5 µM (inactive) | 18 µM (inactive) | 23.7 µM (inactive) |  | 15 µM (inactive)
CSc1nc(NC2OC(COC(C)=O)C(OC(C)=O)C(OC(C)=O)C2OC(C)=O)c2c(n1)OCC2=O (stereo unspecified) | > 100 µM (inactive) | > 100 µM (inactive) | > 100 µM (inactive) | > 100 µM (inactive) | > 100 | > 100 µM (inactive) | > 100 µM (inactive) | > 100 µM (inactive) | > 100 µM (inactive) | > 100 µM (inactive) | > 100 µM (inactive) | > 100 µM (inactive) | > 100 µM (inactive) | > 100 µM (inactive) | > 100 µM (inactive) | > 100 µM (inactive) | > 100 µM (inactive) | 
Cc1ccc(C2=Nc3ccccc3NC(=O)C2)cc1 | > 100 µM (inactive) | > 100 µM (inactive) | > 100 µM (inactive) | > 100 µM (inactive) | > 100 |  | > 100 µM (inactive) | > 100 µM (inactive) | > 100 µM (inactive) | > 100 µM (inactive) | 77.8 µM (inactive) | > 100 µM (inactive) | > 100 µM (inactive) | > 100 µM (inactive) | > 100 µM (inactive) | 95.1 µM (inactive) | 12.7 µM (inactive) | > 100 µM (inactive)
N#CC1(Cc2ccccc2)CCCCN1C(=O)c1ccccc1 (stereo unspecified) | > 100 µM (inactive) | > 100 µM (inactive) | > 100 µM (inactive) | > 100 µM (inactive) | > 100 | > 100 µM (inactive) | > 100 µM (inactive) | > 100 µM (inactive) | 92.9 µM (inactive) | > 100 µM (inactive) | > 100 µM (inactive) | > 100 µM (inactive) | > 100 µM (inactive) | > 100 µM (inactive) | 74.6 µM (inactive) | 84.7 µM (inactive) |  | > 100 µM (inactive)
OC1(C23CC4CC(CC(C4)C2)C3)CSCC1(O)C12CC3CC(CC(C3)C1)C2 (stereo unspecified) |  | 70.6 µM (inactive) | > 100 µM (inactive) | > 100 µM (inactive) |  | > 100 µM (inactive) |  | > 100 µM (inactive) | > 100 µM (inactive) | > 100 µM (inactive) | > 100 µM (inactive) | > 100 µM (inactive) | > 100 µM (inactive) | > 100 µM (inactive) | > 10 µM (inactive) |  | > 100 µM (inactive) | 
NC1=NC(c2ccccc2)CC(c2cc(Cl)ccc2O)=N1 (stereo unspecified) | 15.5 µM (inactive) | 15.8 µM (inactive) | 19.5 µM (inactive) | 16 µM (inactive) |  | 15.2 µM (inactive) | 20.1 µM (inactive) | 13.6 µM (inactive) | 15.2 µM (inactive) | 14.3 µM (inactive) | 16.1 µM (inactive) | 17.9 µM (inactive) | 16.7 µM (inactive) | 17.3 µM (inactive) | 14.2 µM (inactive) | 15.5 µM (inactive) | 21.2 µM (inactive) | 17.3 µM (inactive)
CO/N=C/c1cc(OC)c(OC)c(OC)c1 | > 100 µM (inactive) | > 100 µM (inactive) | > 100 µM (inactive) | > 100 µM (inactive) | > 100 | > 100 µM (inactive) | > 100 µM (inactive) | > 100 µM (inactive) | > 100 µM (inactive) | > 100 µM (inactive) | > 100 µM (inactive) | > 100 µM (inactive) | > 100 µM (inactive) | > 100 µM (inactive) | > 100 µM (inactive) | > 100 µM (inactive) | > 100 µM (inactive) | 
CCOC(=O)[C@H](Cc1ccccc1)NC(=O)c1nc[nH]c1[N+](=O)[O-] | > 100 µM (inactive) | > 100 µM (inactive) | > 100 µM (inactive) | > 100 µM (inactive) | > 100 | > 100 µM (inactive) | > 100 µM (inactive) | > 100 µM (inactive) | > 100 µM (inactive) | > 100 µM (inactive) | > 100 µM (inactive) | > 100 µM (inactive) | > 100 µM (inactive) | > 100 µM (inactive) | > 100 µM (inactive) | > 100 µM (inactive) | > 100 µM (inactive) | 
C=CC1[C@H]2COC(C)(C)O[C@@H]2CC(=O)C1(C)C (stereo partly specified) | > 100 µM (inactive) |  | > 100 µM (inactive) | > 100 µM (inactive) |  |  |  | > 100 µM (inactive) | > 100 µM (inactive) | > 100 µM (inactive) | 72.9 µM (inactive) | > 100 µM (inactive) | > 100 µM (inactive) | > 100 µM (inactive) |  | > 100 µM (inactive) | > 100 µM (inactive) | 94.8 µM (inactive)
CC1CC2OC(=O)CC2C[C@@H]1O[Si](C)(C)C(C)(C)C (stereo partly specified) | 75.7 µM (inactive) | 68.7 µM (inactive) | 74.6 µM (inactive) | 64.4 µM (inactive) | 54.5 | 21.7 µM (inactive) | > 10 µM (inactive) | > 100 µM (inactive) | 57.7 µM (inactive) | 88.3 µM (inactive) | 80.9 µM (inactive) | 61 µM (inactive) | > 100 µM (inactive) | 58.7 µM (inactive) | 21.5 µM (inactive) | 55.7 µM (inactive) |  | 
C[C@@H]1C[C@H]2[C@@H]3CCC4=CC(=O)C=C[C@]4(C)[C@@]3(F)[C@@H](O)C[C@]2(C)[C@@]1(O)C(=O)CO [DEXAMETHASONE] |  | > 100 µM (inactive) | > 100 µM (inactive) |  | > 100 |  |  | < 0.01 µM (active) | > 100 µM (inactive) | > 100 µM (inactive) | > 100 µM (inactive) | > 100 µM (inactive) |  |  | 95.1 µM (inactive) | > 100 µM (inactive) | > 100 µM (inactive) | 
